Data from patent publication US11780845B2 (Relay Therapeutics, Inc., priority 2019, dated 2023).
pIC50: −log10 of the molar value.

What was measured:
[1] = tested on: SNU-16; assay: Cell SNU-16 assay; format: cell-based
[2] = target: FGFR2 (Homo sapiens (Human), UniProt P21802); assay: Biochemical FGFR2 Caliper assay
[3] = Homo sapiens, SNU-16, SNU-16 cells

Chain of FGFR2 (P21802 22-821): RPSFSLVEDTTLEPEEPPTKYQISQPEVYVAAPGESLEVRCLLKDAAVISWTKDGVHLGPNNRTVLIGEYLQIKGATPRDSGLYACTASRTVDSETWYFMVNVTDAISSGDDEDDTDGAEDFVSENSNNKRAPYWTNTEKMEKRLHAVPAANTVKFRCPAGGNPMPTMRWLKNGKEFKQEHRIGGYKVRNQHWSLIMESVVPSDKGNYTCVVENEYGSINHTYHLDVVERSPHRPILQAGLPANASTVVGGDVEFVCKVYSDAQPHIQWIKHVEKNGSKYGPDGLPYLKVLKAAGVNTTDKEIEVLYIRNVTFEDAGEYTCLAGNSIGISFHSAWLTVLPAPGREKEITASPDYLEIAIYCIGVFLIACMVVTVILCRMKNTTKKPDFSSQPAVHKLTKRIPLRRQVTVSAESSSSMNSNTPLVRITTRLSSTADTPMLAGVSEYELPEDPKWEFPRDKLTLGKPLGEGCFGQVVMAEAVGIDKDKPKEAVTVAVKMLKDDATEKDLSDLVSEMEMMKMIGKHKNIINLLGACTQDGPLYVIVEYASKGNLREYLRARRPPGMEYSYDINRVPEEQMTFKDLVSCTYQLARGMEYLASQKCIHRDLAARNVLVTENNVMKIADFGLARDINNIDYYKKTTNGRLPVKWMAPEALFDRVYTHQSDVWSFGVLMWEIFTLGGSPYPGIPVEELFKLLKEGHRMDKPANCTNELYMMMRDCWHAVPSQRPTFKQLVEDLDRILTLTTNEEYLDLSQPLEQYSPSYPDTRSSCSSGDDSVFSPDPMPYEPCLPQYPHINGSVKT

Row | pIC50 [1, 3] | pIC50 [2] | pIC50 ([1]; SNU-16 cells) | Compound
1 | 6.60 to 7.00 | > 7.00 |  | C#Cc1cnc2cc(-c3c(-c4ccc(Oc5nccc(C)n5)c(F)c4)c4c(C)ncnc4n3C)ccc2n1 [Example 1408]
2 | ≥ 7.00 | > 7.00 |  | C#Cc1ncc2cc(-c3c(-c4ccc(Oc5nccc(C)n5)c(F)c4)c4c(N)ncnc4n3C)n(C)c2n1 [Example 1411]
3 | 6.00 to 6.60 | 6.00 to 6.60 |  | C#Cc1ccc2ccc(-c3c(-c4ccc(Oc5nccc(C)n5)c(F)c4)c4c(N)ncnc4n3C)cc2n1 [Example 1412]
4 | ≥ 7.00 | > 7.00 |  | C#Cc1cnc2c(cc(-c3c(-c4ccc(Oc5nccc(C)n5)c(F)c4)c4c(N)ncnc4n3C)n2C)n1 [Example 1413]
5 |  | > 7.00 | 6.60 to 7.00 | C#Cc1cc(C)c(-c2c(-c3ccc(Oc4nccc(C)n4)c(F)c3)c3c(Cl)ncnc3n2C)c(F)n1 [Example 1416]
6 |  | > 7.00 | ≥ 7.00 | C#Cc1cc(C)c(-c2c(-c3ccc(Oc4nccc(C)n4)c(F)c3)c3c(Cl)ncnc3n2C)c(F)n1 [Example 1417]
7 | ≥ 7.00 | > 7.00 |  | C#Cc1cc(OC)c(-c2c(-c3ccc(Oc4nccc(C)n4)c(F)c3)c3c(C)ncnc3n2C)cn1 [Example 1418]
8 | ≥ 7.00 | > 7.00 |  | C=C(C)C(=O)Nc1ccc(-c2c(-c3cnc(-c4ccc(OC)cc4)s3)c3c(N)ncnc3n2C)cc1 [Example 1419]
9 | 6.00 to 6.60 | 6.00 to 6.60 |  | C=C(C)C(=O)Nc1ccc(-c2c(-c3cnc(-c4cccc(OC)c4)s3)c3c(N)ncnc3n2C)cc1 [Example 1420]
10 | 6.00 to 6.60 | 6.00 to 6.60 |  | C=C(C)C(=O)Nc1ccc(-c2c(-c3cnc(-c4cccc(F)c4)s3)c3c(N)ncnc3n2C)cc1 [Example 1421]
11 | 6.00 to 6.60 | 6.00 to 6.60 |  | C=C(C)C(=O)Nc1ccc(-c2c(-c3cnc(-c4ccccc4C)s3)c3c(N)ncnc3n2C)cc1 [Example 1422]
12 | 6.00 to 6.60 | 6.00 to 6.60 |  | C=C(C)C(=O)Nc1ccc(-c2c(-c3cnc(-c4cccc(C)c4)s3)c3c(N)ncnc3n2C)cc1 [Example 1423]
13 | 6.00 to 6.60 | 6.60 to 7.00 |  | C=C(C)C(=O)Nc1ccc(-c2c(-c3cnc(-c4ccc(F)cc4)s3)c3c(N)ncnc3n2C)cc1 [Example 1424]
14 | 4.00 to 6.00 | 4.00 to 6.00 |  | C#Cc1cnc2cc(-c3c(-c4ccc(Oc5nccc(C)n5)c(F)c4)c4c(N)ncnc4n3C)ccc2c1 [Example 1425]
15 | ≥ 7.00 | > 7.00 |  | C#Cc1nc2cc(-c3c(-c4ccc(Oc5nccc(C)n5)c(F)c4)c4c(N)ncnc4n3C)c(OC)cc2n1C [Example 1426]
16 | ≥ 7.00 | > 7.00 |  | COCC#Cc1ccc2cc(-c3c(-c4ccc(Oc5nccc(C)n5)c(F)c4)c4c(N)ncnc4n3C)ccc2n1 [Example 1427]
17 | ≥ 7.00 | > 7.00 |  | C#Cc1cnc2cc(-c3c(-c4ccc(Oc5nccc(C)n5)c(F)c4)c4c(N)ncnc4n3C)c(C)cc2n1 [Example 1428]
18 | ≥ 7.00 | > 7.00 |  | C#Cc1ccc2cc(-c3c(-c4ccc(Oc5nccc(C)n5)c(F)c4)c4c(N)ncnc4n3C)cnc2n1 [Example 1429]
19 | ≥ 7.00 | > 7.00 |  | COCC#Cc1cc(OC)c(-c2c(-c3ccc(Oc4nccc(C)n4)c(F)c3)c3c(C)ncnc3n2C)cn1 [Example 1430]
20 | ≥ 7.00 | > 7.00 |  | [2H]C#Cc1cc(C)c(-c2c(-c3ccc(Oc4nccc(C)n4)c(F)c3)c3c(N)ncnc3n2C)cn1 [Example 1431]

Row | pIC50 [1, 3] | pIC50 [2] | pIC50 ([1]; SNU-16 cells) | Compound
21 | 4.00 to 6.00 | 4.00 to 6.00 |  | C#Cc1cc(C)c(-c2c(-c3ccc(Oc4nccc(C)n4)c(F)c3)c3c(C(F)F)ncnc3n2C)cn1 [Example 1432]
22 | ≥ 7.00 | > 7.00 |  | C#Cc1cc(OC)c(-c2c(-c3ccc(Oc4nccc(C)n4)c(F)c3)c3c(N)ncnc3n2C)cn1 [Example 1433]
23 | ≥ 7.00 | > 7.00 |  | C#Cc1nc2cc(-c3c(-c4ccc(Oc5nccc(C)n5)c(F)c4)c4c(N)ncnc4n3C)c(C)cc2n1C [Example 1434]
24 | 4.00 to 6.00 | 4.00 to 6.00 |  | C=C(C)C(=O)Nc1ccc(-c2c(-c3ccc(OCc4ccccc4)c(F)c3)c3c(N)ncnc3n2C)cc1 [Example 1435]
25 | 4.00 to 6.00 | 4.00 to 6.00 |  | C=C(C)C(=O)Nc1ccc(-c2c(-c3ccc(OCc4ccccn4)c(F)c3)c3c(N)ncnc3n2C)cc1 [Example 1436]
26 | 4.00 to 6.00 | 6.00 to 6.60 |  | C=C(C)C(=O)Nc1ccc(-c2c(-c3ccc(O)c(F)c3)c3c(N)ncnc3n2C)cc1 [Example 1437]
27 | ≥ 7.00 | > 7.00 |  | C#Cc1nc(C)c(-c2c(-c3ccc(Oc4nccc(C)n4)c(F)c3)c3c(N)ncnc3n2C)c(C)n1 [Example 1438]
28 |  | > 7.00 | ≥ 7.00 | C#Cc1cc(C)c(-c2c(-c3ccc(Oc4nccc(C)n4)c(F)c3)c3c(N)ncnc3n2C)cn1 [Example 1439]
29 | ≥ 7.00 | > 7.00 |  | C#Cc1cc2c(cn1)-c1c(-c3ccc(Oc4nccc(C)n4)c(F)c3)c3c(N)ncnc3n1CCO2 [Example 1440]
30 | 6.60 to 7.00 | 6.00 to 6.60 |  | C#Cc1cc2c(cn1)-c1c(-c3ccc(Oc4nccc(C)n4)c(F)c3)c3c(N)ncnc3n1[C@H](C)CO2 [Example 1441]
31 | 6.00 to 6.60 | 4.00 to 6.00 |  | C#Cc1cc2c(cn1)-c1c(-c3ccc(Oc4nccc(C)n4)c(F)c3)c3c(N)ncnc3n1[C@@H](C)CO2 [Example 1442]
32 | ≥ 7.00 | 6.60 to 7.00 |  | C#Cc1ccc2c(n1)CCCn1c-2c(-c2ccc(Oc3nccc(C)n3)c(F)c2)c2c(N)ncnc21 [Example 1443]
33 | ≥ 7.00 | > 7.00 |  | C#Cc1cc2c(cn1)-c1c(-c3ccc(Oc4nccc(C)n4)c(F)c3)c3c(C)ncnc3n1CCC2 [Example 1445]
34 | ≥ 7.00 | > 7.00 |  | C#Cc1cc(OCCO)c(-c2[nH]c3ncnc(N)c3c2-c2ccc(Oc3nccc(C)n3)c(F)c2)cn1 [Example 1447]
35 | ≥ 7.00 | > 7.00 |  | C#Cc1cc(OC)c(-c2c(-c3ncc(Oc4nccc(C)n4)cc3F)c3c(N)ncnc3n2C)cn1 [Example 1452]
36 | ≥ 7.00 | > 7.00 |  | C#Cc1cc(OC)c(-c2c(-c3ncc(Oc4nccc(C)n4)cc3F)c3c(C)ncnc3n2C)cn1 [Example 1454]
37 | ≥ 7.00 | > 7.00 |  | C#Cc1cc2c(cn1)-c1c(-c3ccc(Oc4nccc(C)n4)c(F)c3)c3c(N)ncnc3n1C[C@H](C)O2 [Example 1455]
38 | ≥ 7.00 | > 7.00 |  | C#Cc1cc2c(cn1)-c1c(-c3ccc(Oc4nccc(C)n4)c(F)c3)c3c(N)ncnc3n1C[C@@H](C)O2 [Example 1456]
39 | ≥ 7.00 | 6.60 to 7.00 |  | C#Cc1cc(OC)c(-c2c(-c3ccc(C(=O)NCC4(F)CCC4)c(OC)c3)c3c(C)ncnc3n2C)cn1 [Example 1457]
40 | ≥ 7.00 | > 7.00 |  | C#Cc1cc(N(C)C)c(-c2c(-c3ccc(Oc4nccc(C)n4)c(F)c3)c3c(N)ncnc3n2C)cn1 [Example 1458]

Row | pIC50 [1, 3] | pIC50 [2] | pIC50 ([1]; SNU-16 cells) | Compound
41 | 6.60 to 7.00 | 6.00 to 6.60 |  | C#Cc1ccc2c(cc(-c3c(-c4ccc(Oc5nccc(C)n5)c(F)c4)c4c(N)ncnc4n3C)n2C)n1 [Example 1461]
42 | 4.00 to 6.00 | 4.00 to 6.00 |  | C#Cc1cc(C)c(-c2nn3c(c2-c2ccc(Oc4nccc(C)n4)c(F)c2)COCC3)cn1 [Example 1462]
43 | ≥ 7.00 | 6.00 to 6.60 |  | C#Cc1cc(OC)c(-c2c(C3=CC[C@@H](C(=O)N4CCC[C@H]4C#N)CC3)c3c(C)ncnc3n2C)cn1 [Example 1467]
44 | ≥ 7.00 | > 7.00 |  | C#Cc1cc(OC)c(-c2c(C3=CC[C@H](C(=O)N4CCC[C@H]4C#N)CC3)c3c(C)ncnc3n2C)cn1 [Example 1468]
45 | ≥ 7.00 | > 7.00 |  | C#Cc1cc(OC)c(-c2c(C3=CC[C@H](C(=O)N4CCC[C@H]4C#N)CC3)c3c(C)ncnc3n2C)c(C)n1 [Example 1473]
46 |  | 4.00 to 6.00 | 4.00 to 6.00 | C#Cc1cc(OC)c(-c2c(C3=CC[C@@H](C(=O)N4CCC[C@H]4C#N)CC3)c3c(C)ncnc3n2C)c(C)n1 [Example 1475]
47 |  | 4.00 to 6.00 | 6.00 to 6.60 | C#Cc1cc(OC)c(-c2c(C3=CC[C@@H](C(=O)N4CCC[C@H]4C#N)CC3)c3c(C)ncnc3n2C)c(C)n1 [Example 1476]
48 | ≥ 7.00 | > 7.00 |  | C#Cc1cc2c(cn1)-c1c(-c3ccc(Oc4nccc(C)n4)c(F)c3)c3c(N)ncnc3n1CCC2 [Example 1477]
49 | 6.60 to 7.00 | 6.00 to 6.60 |  | C#Cc1cc(CCCO)c(-c2[nH]c3ncnc(N)c3c2-c2ccc(Oc3nccc(C)n3)c(F)c2)cn1 [Example 1478]
50 | ≥ 7.00 | 6.00 to 6.60 |  | C#Cc1cc(C)c(-c2c(-c3ccc(Oc4nccc(C)n4)c(F)c3)c3c(CO)ncnc3n2C)cn1 [Example 1479]
51 | 6.00 to 6.60 | 4.00 to 6.00 |  | C=C(C)C(=O)Nc1ccc(-c2c(C3=CC[C@H](C(=O)N4CCCC4)CC3)c3c(N)ncnc3n2C)c(OC)c1 [Example 1480]
52 | 6.60 to 7.00 | 6.00 to 6.60 |  | C=C(C)C(=O)Nc1ccc(-c2c(C3=CC[C@H](C(=O)N4CCC[C@H]4C)CC3)c3c(N)ncnc3n2C)c(C)c1 [Example 1481]
53 | ≥ 7.00 | > 7.00 |  | C=C(C)C(=O)Nc1cc(C)c(-c2c(C3=CC[C@H](C(=O)N4CCCC4)CC3)c3c(N)ncnc3n2C)c(F)c1 [Example 1482]
54 | ≥ 7.00 | > 7.00 |  | C=C(C)C(=O)Nc1cc(C)c(-c2c(C3=CC[C@@H](C(=O)N4CCCC4)CC3)c3c(N)ncnc3n2C)c(F)c1 [Example 1483]
55 | 6.00 to 6.60 | 6.00 to 6.60 |  | C#Cc1ncc(-c2c(-c3ccc(Oc4nccc(C)n4)cn3)c3c(C)ncnc3n2C)c(C)c1F [Example 1488]
56 | 4.00 to 6.00 | 4.00 to 6.00 |  | C#Cc1ncc(-c2c(-c3ccc(Oc4nccc(C)n4)cn3)c3c(N)ncnc3n2C)c(OC)c1F [Example 1490]
57 | ≥ 7.00 | > 7.00 |  | C#Cc1cc(OC)c(-c2c(-c3ccc(Oc4nccc(C)n4)cn3)c3c(N)ncnc3n2C)cn1 [Example 1491]
58 | ≥ 7.00 | > 7.00 |  | C#Cc1cc(C)c(-c2c(-c3ncc(Oc4nccc(C)n4)cc3F)c3c(N)ncnc3n2C)cn1 [Example 1492]
59 | ≥ 7.00 | > 7.00 |  | C#Cc1ccc2c(n1)OCCn1c-2c(-c2ccc(Oc3nccc(C)n3)c(F)c2)c2c(N)ncnc21 [Example 1495]
